# Where no end group is shown, it is not given here. [ ]: non-standard residue; d: D form. The star is where a group is joined. Hexanoyl = CCCCCC(=O)*; PEG = not defined here; Ahx = NCCCCCC(=O)O
# What was measured:
# C2C12 muscle cells [1] = experiment: C2C12 proliferation, BrdU incorporation; type: cell-based, mouse; conditions: 500 cells per well; 0.1, 1, 10 and 100 ng/ml; stimulation 24 hours, BrdU 5 hours
# Experimental: (B) Peptides A2, A4, A6 and A8: C2C12 muscle cells at a 500 cells/well. Cultivation was carried out for 24 hours in 10% FBS, followed by starvation for 24 hours in 0.1% BSA, stimulation for 24 hours and then treatment with BrdU for 5 hours. Concentrations of 0.1, 1, 10 and 100 ng/ml of peptides A2, A4, A6 and A8 were tested, along with 0.1, 1, 10 and 100 ng/ml IGF-I (See the right-hand set of results). BrdU incorporation was measured to assess the level of cell proliferation achieved. Controls containing no cells, medium only, 5% FBS and no BrdU were also provided. Values on the Y-axis are for fluorescence (absorbence at 370 nm; mean plus standard error across 4 wells). The first column on the left relates to a control in which no cells were present. The next four relate to peptide A2 at concentrations of 0.1, 1, 10 and 100 ng/ml. The next four relate to peptide A4 at concentrations of 0.1, 1, 10 and 100 ng/ml. The central three relate to controls containing medium only (med), 5% FBS) and no BrdU. The next four relate to peptide A6 at concentrations of 0.1, 1, 10 and 100 ng/ml. The next four relate to peptide A8 at concentrations of 0.1, 1, 10 and 100 ng/ml. The right-hand group of results relate to IGF-I (See Example 1.5) at concentrations of 0.1, 1, 10 and 100 ng/ml.
# The 8 amino acid peptides described in 1.3.2 above and referred to in FIG. 8B as A2, A4, A6 and A8 were tested for the ability to induce proliferation of C2C12 muscle cells at a density of 500 cells per well. Cultivation was carried out for 24 hours in 10% FBS, followed by starvation for 24 hours in 0.1% BSA, stimulation for 24 hours and then treatment with BrdU for 5 hours. Concentrations of 0.1, 1, 10 and 100 ng/ml of peptides A2, A4, A6 and A8 were tested, along with 0.1, 1, 10 and 100 ng/ml IGF-I (See the right-hand set of results in FIG. 8B). Incorporation of BrdU was measured to assess the level of cell proliferation achieved. Controls containing no cells, medium only, 5% FBS and no BrdU were also provided.
# C2C12 muscle cells [2] = experiment: C2C12 proliferation, Alamar Blue assay; type: cell-based, mouse; conditions: 2000 cells per well; 2, 5, 50 and 100 ng/ml; medium with IGF-I 2 ng per ml; 36 hours
# Experimental: (A) DMGF and CMGF Peptides: C2C12 Cells were provided at 2000 cell/well, in a medium containing DMEM (1000 mg/L glucose), plus BSA(100 ug/ml), plus IGF-I (2 ng per ml) and incubated for 36 hours. Cell proliferation was then assessed using an Alamar Blue assay. […] Y-axis values are fluorescence (wavelength of excitation 535 nm, measurement at 590 nm; mean plus standard error) in an Alamar Blue assay.
# The 8 amino acid peptides described in 1.3.1 above and referred to in FIG. 8A as DMGF and CMGF were tested for the ability to induce proliferation of C2C12 muscle cells at a density of 2000 cells per well in a medium containing DMEM (1000 mg/L glucose), BSA (10 ug/ml) and IGF-I (2 ng per ml). Concentrations of 2, 5, 50 and 100 ng/ml of DMGF and CMGF were tested (See the left-hand and middle sets of results in FIG. 8), along with 2, 5, 50 and 100 ng/ml IGF-I alone (See the right-hand set of results in FIG. 8). After 36 hours incubation, an Alamar Blue assay was used to assess the level of cell proliferation achieved. A control containing only the medium was also provided.
# [3] = test system: mononucleated myoblasts (satellite cells); experiment: Myoblast replication, cell number by Alamar Blue method (0 to 3 scale); type: cell-based
# Experimental: FIG. 2: Effect of Alanine substitution and C-terminal and N-terminal truncation on stability and biological activity—further sequence alignment, comparing modified sequences of Peptides 1-6 (SEQ ID NOS: 15-20) and Short peptides 1-4 (SEQ NOS: 21-24), and detailing impact of changes on stability as measured by incubation in human plasma and biological activity as measured by testing on muscle cell line (see Examples for details of test procedures).
# In this regard, one method of assessing biological activity is the Alamar Blue method as discussed in Example 5.2.2. This involves contacting a polypeptide with mononucleated myoblast cells and assessing the extent to which it causes them to proliferate. This can be scored in any suitable way, e.g. on a scale of 0 to 3 as discussed in the Examples. Activity may also be measured via cyclins, such as cyclin ID, which are early markers of cell division. Activity may also be measured via the use of bromodeoxy uridine (BrdU).
# Biological activity was determined using an in vitro system by measuring the ability of the C terminal peptides to induce mononucleated myoblasts (satellite cells) to replicate. Cell number was determined using the Alamar Blue method.
# [4] = Stability to proteolytic cleavage in fresh human plasma, Western blotting
# Experimental: Western blotting was then used to assess the survival of each peptide over those time intervals: A=0 minutes; B=30 minutes; C=2 hours; D=24 hours.
# Stability may be assessed in terms of half-life in human plasma or by any other suitable technique. In particular, stability can be measured by assessing peptides' susceptibility to proteolytic cleavage in fresh human plasma according to the technique of Example 5.1 below, in which the plasma was stored until used at −70° C., 10 μg of peptide was added to 2 ml of plasma, plus 7 ml of PBS and the mixture was incubated at 37° C. for different time intervals. Western blotting was then used to detect each peptide over those time intervals.
# The plasma was stored until used at −70° C. 10 μg of peptide were added to 2 ml of plasma, plus 7 ml of PBS. This mixture was incubated at 37° C. for different time intervals.
# Like biological activity, stability was scored on a scale of 0 to 3.
# Stability was determined as the amount of the peptide that remained intact and bound to the specific antibody in the following way:
Substance,proliferation of C2C12 cells (BrdU incorporation) (C2C12 muscle cells [1]),biological activity score (scale of 0 to 3) [3],also measured
"A2: Gly-Ser-Thr-Phe-Glu-Glu-Arg-Lys (SEQ ID NO:34), amidated at the C-terminus, unmodified at the N-terminus (H-GSTFEERK-NH2) [Peptide A2]",induced cell proliferation,–,–
"A4: Gly-Ser-Thr-Phe-Glu-Glu-Arg-Lys (SEQ ID NO:34), amidated at the C-terminus, hexanoic acid moiety at the N-terminus (Hexanoyl-GSTFEERK-NH2; SMILES CCCCCC(=O)NCC(=O)N[C@@H](CO)C(=O)N[C@H](C(=O)N[C@@H](Cc1ccccc1)C(=O)N[C@@H](CCC(=O)O)C(=O)N[C@@H](CCC(=O)O)C(=O)N[C@@H](CCCNC(=N)N)C(=O)N[C@@H](CCCCN)C(N)=O)[C@@H](C)O) [Peptide A4]",induced cell proliferation,–,–
"A6: Gly-Ser-Thr-Phe-Glu-Glu-Arg-Lys (SEQ ID NO:34), amidated at the C-terminus, amino-hexanoic acid moiety at the N-terminus ([Ahx]GSTFEERK-NH2; N-terminus assumed; SMILES C[C@@H](O)[C@H](NC(=O)[C@H](CO)NC(=O)CNC(=O)CCCCCN)C(=O)N[C@@H](Cc1ccccc1)C(=O)N[C@@H](CCC(=O)O)C(=O)N[C@@H](CCC(=O)O)C(=O)N[C@@H](CCCNC(=N)N)C(=O)N[C@@H](CCCCN)C(N)=O) [Peptide A6]",induced cell proliferation,–,–
"A8: Gly-Ser-Thr-Phe-Glu-Glu-His-Lys (SEQ ID NO:33), amidated at the C-terminus, hexanoic acid at the N-terminus (Hexanoyl-GSTFEEHK-NH2; SMILES CCCCCC(=O)NCC(=O)N[C@@H](CO)C(=O)N[C@H](C(=O)N[C@@H](Cc1ccccc1)C(=O)N[C@@H](CCC(=O)O)C(=O)N[C@@H](CCC(=O)O)C(=O)N[C@@H](Cc1c[nH]cn1)C(=O)N[C@@H](CCCCN)C(N)=O)[C@@H](C)O) [Peptide A8]",induced cell proliferation,–,–
"CMGF: Gly-Ser-Thr-Phe-Glu-Glu-His-Lys (SEQ ID NO:33), N-terminal hexanoic acid, amidated at the C-terminal end (Hexanoyl-GSTFEEHK-NH2; SMILES CCCCCC(=O)NCC(=O)N[C@@H](CO)C(=O)N[C@H](C(=O)N[C@@H](Cc1ccccc1)C(=O)N[C@@H](CCC(=O)O)C(=O)N[C@@H](CCC(=O)O)C(=O)N[C@@H](Cc1c[nH]cn1)C(=O)N[C@@H](CCCCN)C(N)=O)[C@@H](C)O)",–,–,proliferation of C2C12 cells (Alamar Blue fluorescence) (C2C12 muscle cells [2]): induced cell proliferation
"DMGF: Gly-Ser-Thr-Phe-Glu-Glu-His-Lys (SEQ ID NO:33), N-terminal PEGylation, amidated at the C-terminal end ({PEG}-GSTFEEHK-NH2; reading uncertain; also: printed as Gly-Ser-Thr-Phe-Glu-Glu-His-Lys)",–,–,proliferation of C2C12 cells (Alamar Blue fluorescence) (C2C12 muscle cells [2]): induced cell proliferation
Short peptide 2: SEQ ID NO: 15 with Arg14→Ala and the four C-terminal amino acids removed (YQPPSTNKNTKSQARKGSTF),–,zero,–
Short peptide 3: SEQ ID NO: 15 with Arg14→Ala and the three N-terminal amino acids removed (PSTNKNTKSQARKGSTFEEHK),–,zero,–
Short peptide 4: SEQ ID NO: 15 with Arg14→Ala and the five N-terminal amino acids removed (TNKNTKSQARKGSTFEEHK),–,zero,–
YQPPSTNKNTKAQRRKGSTFEEHK [Peptide 3],–,3 (significant increase in cell number at 1 h.),–
YQPPSTNKNTKSQAAKGSTFEEHK [Peptide 6],–,zero,–
YQPPSTNKNTKSQRRKGSTFEEHK [Peptide 1],–,–,"biological activity (in words) [3]: little or no activity; stability score (scale of 0 to 3) ([4]; fresh human plasma, Western blotting, intact peptide bound to specific antibody): 1 (marked loss of detectable antibody binding by ½ hours.)"
"YQPPSTNKNTKSQRRKGSTFEERK [native human MGF C terminal Ec peptide, reference compound]",–,–,half-life in human plasma ([4]; human plasma): short half-life
